# Legend:
# [1] = test system: ACC1; settings: ACC1 isolated from rat, mouse, monkey and human; cited from earlier work
# [2] = test system: ACC2; settings: ACC2 isolated from rat, mouse, monkey and human; cited from earlier work
# [3] = molecular target: ACC2 (Homo sapiens, UniProt O00763); experiment: in vitro ACC2 inhibition assay (ADP-Glo); type: biochemical; settings: 5 nM ACC2, 20 μM ATP, 20 μM acetyl-CoA
# Experimental: An exemplary procedure for the in vitro ACC inhibition assay, which can be used to determine the inhibitory action of compounds of the invention toward either ACCT or ACC2, follows. The ADP-Glo™ Kinase Assay kit from Promega is used. The ADP-Glo™ Kinase Assay is a luminescent ADP detection assay to measure enzymatic activity by quantifying the amount of ADP produced during an enzyme reaction. The assay is performed in two steps; first, after the enzyme reaction, an equal volume of ADP-Glo™ Reagent is added to terminate the reaction and deplete the remaining ATP. Second, the Kinase Detection Reagent is added to simultaneously convert ADP to ATP and allow the newly synthesized ATP to be measured using a luciferase/luciferin reaction. Luminescence can be correlated to ADP concentrations by using an ATP-to-ADP conversion curve. The detailed procedure is as follows. 50 μL of the compound being tested (600 uM in DMSO) is added to a 384-well dilution plate. The compound is diluted 1:3 in succession in DMSO for each row for 11 wells. […] is added to 384-well white Optiplate assay plate. 0.5 μL diluted compound solution in each column from step 2 is added to the assay plate, each row containing 2 replicates. For the last 2 rows, add 0.5 μL negative control (DMSO) in one row and 0.5 μL positive control (compound I-97) in the other. The plates are incubated at room temperature for 15 minutes. 5 μL substrate working solution is added to each well to initiate reaction. Final ACC2 reaction concentrations consist of: 5 nM ACC2, 20 μM ATP, 20 μM acetyl-CoA, 12 mM NaHCO3, 0.01% Brij35, 2 mM DTT, 5% DMSO, test compound concentrations: 30 μM, 10 μM, 3.33 μM, 1.11 μM, 0.37 μM, 0.123 μM, 0.0411 μM, 0.0137 μM, 0.00457 μM, 0.00152 μM, and 0.00051 μM. Plates are incubated at room temperature for 60 minutes. 10 μL ADP glo reagent is added. Plates are incubated at room temperature for 40 minutes. 20 μL kinase detection reagent is added. Plates are incubated at room temperature for 40 minutes, then read on a Perkin Elmer EnVision 2104 plate reader for luminescence as Relative Light Units (RLU).
# Data for each concentration, as well as the positive and negative controls are averaged, and the standard deviation calculated. Percent inhibition is calculated by the formula: 100×(average negative control−compound)/(average negative control−average positive control). The IC50 for each compound is calculated by fitting the data with a non-linear regression equation: Y=Bottom+(Top-Bottom)/(1+10^((Log IC50−X)*HillSlope)), where X is the log of compound concentration and Y is percent inhibition.
# Chain of ACC2 (Homo sapiens, UniProt O00763) (O00763 whole entry, species assumed): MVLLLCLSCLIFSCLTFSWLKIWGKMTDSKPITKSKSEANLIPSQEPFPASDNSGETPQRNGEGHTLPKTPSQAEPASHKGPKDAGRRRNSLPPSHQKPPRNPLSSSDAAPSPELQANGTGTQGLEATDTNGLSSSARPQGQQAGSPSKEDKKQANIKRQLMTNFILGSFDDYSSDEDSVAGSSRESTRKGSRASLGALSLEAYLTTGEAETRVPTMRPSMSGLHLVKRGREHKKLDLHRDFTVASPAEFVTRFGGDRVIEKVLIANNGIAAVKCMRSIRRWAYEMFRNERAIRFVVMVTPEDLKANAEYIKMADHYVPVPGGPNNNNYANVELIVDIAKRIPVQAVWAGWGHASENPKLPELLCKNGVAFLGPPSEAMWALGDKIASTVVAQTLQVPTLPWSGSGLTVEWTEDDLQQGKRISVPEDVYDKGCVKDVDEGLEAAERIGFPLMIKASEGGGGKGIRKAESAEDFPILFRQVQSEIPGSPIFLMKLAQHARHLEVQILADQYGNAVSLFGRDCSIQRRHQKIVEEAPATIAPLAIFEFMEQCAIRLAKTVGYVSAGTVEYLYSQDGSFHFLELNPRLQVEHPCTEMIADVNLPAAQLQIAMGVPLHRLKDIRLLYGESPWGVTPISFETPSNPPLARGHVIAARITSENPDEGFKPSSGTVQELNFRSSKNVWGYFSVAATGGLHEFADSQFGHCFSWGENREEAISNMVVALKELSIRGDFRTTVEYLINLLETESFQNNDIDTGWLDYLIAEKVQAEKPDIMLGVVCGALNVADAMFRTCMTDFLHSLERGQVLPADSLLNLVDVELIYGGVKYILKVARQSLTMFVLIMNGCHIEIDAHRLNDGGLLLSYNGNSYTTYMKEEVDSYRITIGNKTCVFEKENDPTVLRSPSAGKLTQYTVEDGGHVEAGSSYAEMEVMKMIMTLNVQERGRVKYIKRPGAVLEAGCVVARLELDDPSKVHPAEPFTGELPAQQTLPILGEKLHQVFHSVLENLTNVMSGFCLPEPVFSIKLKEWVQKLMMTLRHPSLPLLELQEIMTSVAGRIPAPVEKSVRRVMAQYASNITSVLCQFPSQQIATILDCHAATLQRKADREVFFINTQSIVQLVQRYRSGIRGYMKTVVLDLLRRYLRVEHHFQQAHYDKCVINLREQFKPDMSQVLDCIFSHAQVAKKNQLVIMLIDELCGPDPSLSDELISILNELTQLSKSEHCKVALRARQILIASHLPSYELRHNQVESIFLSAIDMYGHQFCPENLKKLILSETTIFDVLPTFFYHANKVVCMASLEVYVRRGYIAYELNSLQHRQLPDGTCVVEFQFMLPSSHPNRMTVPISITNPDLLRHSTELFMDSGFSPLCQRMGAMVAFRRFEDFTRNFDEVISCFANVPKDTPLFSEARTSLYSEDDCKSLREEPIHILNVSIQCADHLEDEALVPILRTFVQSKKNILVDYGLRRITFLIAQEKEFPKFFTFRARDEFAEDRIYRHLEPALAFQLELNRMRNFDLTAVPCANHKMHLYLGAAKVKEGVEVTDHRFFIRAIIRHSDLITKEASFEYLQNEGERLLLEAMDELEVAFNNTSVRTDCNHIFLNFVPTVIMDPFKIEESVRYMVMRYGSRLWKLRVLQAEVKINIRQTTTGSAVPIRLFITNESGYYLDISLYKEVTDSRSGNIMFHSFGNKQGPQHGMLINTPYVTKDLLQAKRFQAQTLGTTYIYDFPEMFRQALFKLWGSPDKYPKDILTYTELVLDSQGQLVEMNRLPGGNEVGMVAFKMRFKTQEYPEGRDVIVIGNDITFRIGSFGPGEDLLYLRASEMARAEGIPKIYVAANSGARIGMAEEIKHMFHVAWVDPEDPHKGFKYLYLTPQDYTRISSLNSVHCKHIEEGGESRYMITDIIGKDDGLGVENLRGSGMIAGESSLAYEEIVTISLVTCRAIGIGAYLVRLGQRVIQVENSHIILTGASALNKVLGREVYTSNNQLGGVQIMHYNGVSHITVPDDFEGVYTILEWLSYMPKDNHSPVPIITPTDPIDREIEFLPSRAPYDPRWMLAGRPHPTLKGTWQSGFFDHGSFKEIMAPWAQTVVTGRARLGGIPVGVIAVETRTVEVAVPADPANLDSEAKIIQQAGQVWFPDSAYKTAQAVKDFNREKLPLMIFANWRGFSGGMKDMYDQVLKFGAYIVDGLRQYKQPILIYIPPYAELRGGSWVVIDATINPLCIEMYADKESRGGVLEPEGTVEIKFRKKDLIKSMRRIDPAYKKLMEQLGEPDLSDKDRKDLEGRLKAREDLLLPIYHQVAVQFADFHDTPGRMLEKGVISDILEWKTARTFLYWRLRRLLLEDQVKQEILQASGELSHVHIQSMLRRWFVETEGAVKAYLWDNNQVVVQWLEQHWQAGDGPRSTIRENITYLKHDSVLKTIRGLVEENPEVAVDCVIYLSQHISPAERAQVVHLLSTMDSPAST
IC50 [3] [nM],Compound,IC50 [1] [nM],IC50 [2] [nM]
≤ 1000,"COc1ccccc1CCc1cn(CC(N)=O)c(=O)c2c(C)c(-c3ncco3)sc12 [Compound I-34, 2-(7-(2-methoxyphenethyl)-3-methyl-2-(oxazol-2-yl)-4-oxothieno[3,2-c]pyridin-5(4H)-yl)acetamide]",–,–
5000 to 20000,"COc1ccccc1CCn1c(=O)n(CC(=O)O)c(=O)c2c1nc(-c1ncco1)n2C [Compound I-36, 2-(3-(2-methoxyphenethyl)-7-methyl-8-(oxazol-2-yl)-2,6-dioxo-2,3,6,7-tetrahydro-1H-purin-1-yl)acetic acid]",–,–

# Continued, compound first:
Compound,IC50 [3] [nM],IC50 [1] [nM],IC50 [2] [nM]
O=C(c1c2ccccc2cc2ccccc12)N1CCC(N2CCC[C@@H](C(=O)N3CCOCC3)C2)CC1 [CP-640186],–,~60,~60
"COc1ccccc1CCc1cn(CC(=O)O)c(=O)c2c(C)c(-c3ncco3)sc12 [Compound I-33, 2-(7-(2-methoxyphenethyl)-3-methyl-2-(oxazol-2-yl)-4-oxothieno[3,2-c]pyridin-5(4H)-yl)acetic acid]",≤ 1000,–,–
"COc1ccccc1CCn1c(=O)n(CC(=O)O)c(=O)c2nc(-c3ncco3)sc21 [Compound I-35, 2-(4-(2-methoxyphenethyl)-2-(oxazol-2-yl)-5,7-dioxo-4,5-dihydrothiazolo[5,4-d]pyrimidin-6(7H)-yl)acetic acid]",5000 to 20000,–,–

# Source: US9988399B2, “Bicyclic compounds as ACC inhibitors and uses thereof” (Gilead Apollo, LLC, priority 2013, dated 2018)
